Laboratory results published in patent US20240059693A1, “FUSED BICYCLIC PYRAZOLE DERIVATIVES AND METHODS OF USE THEREOF FOR THE TREATMENT OF HERPESVIRUSES” (Merck Sharp & Dohme LLC, priority 2020, published 2024).
Where two headings read alike, the source gives them in different places.

Experiments:
[1] = target: T1, Human cytomegalovirus DNA polymerase (Human cytomegalovirus, UniProt P08546); assay: HCMV polymerase assay (AlphaLISA); type: biochemical; conditions: HCMV DNA polymerase 0.2 nM, 60 minutes at 37° C.; read-out: CMV (IC50)
T1 construct: made in house; host or cells: SF21 insect cells (baculovirus vector)
T1 sequence (P08546 whole entry): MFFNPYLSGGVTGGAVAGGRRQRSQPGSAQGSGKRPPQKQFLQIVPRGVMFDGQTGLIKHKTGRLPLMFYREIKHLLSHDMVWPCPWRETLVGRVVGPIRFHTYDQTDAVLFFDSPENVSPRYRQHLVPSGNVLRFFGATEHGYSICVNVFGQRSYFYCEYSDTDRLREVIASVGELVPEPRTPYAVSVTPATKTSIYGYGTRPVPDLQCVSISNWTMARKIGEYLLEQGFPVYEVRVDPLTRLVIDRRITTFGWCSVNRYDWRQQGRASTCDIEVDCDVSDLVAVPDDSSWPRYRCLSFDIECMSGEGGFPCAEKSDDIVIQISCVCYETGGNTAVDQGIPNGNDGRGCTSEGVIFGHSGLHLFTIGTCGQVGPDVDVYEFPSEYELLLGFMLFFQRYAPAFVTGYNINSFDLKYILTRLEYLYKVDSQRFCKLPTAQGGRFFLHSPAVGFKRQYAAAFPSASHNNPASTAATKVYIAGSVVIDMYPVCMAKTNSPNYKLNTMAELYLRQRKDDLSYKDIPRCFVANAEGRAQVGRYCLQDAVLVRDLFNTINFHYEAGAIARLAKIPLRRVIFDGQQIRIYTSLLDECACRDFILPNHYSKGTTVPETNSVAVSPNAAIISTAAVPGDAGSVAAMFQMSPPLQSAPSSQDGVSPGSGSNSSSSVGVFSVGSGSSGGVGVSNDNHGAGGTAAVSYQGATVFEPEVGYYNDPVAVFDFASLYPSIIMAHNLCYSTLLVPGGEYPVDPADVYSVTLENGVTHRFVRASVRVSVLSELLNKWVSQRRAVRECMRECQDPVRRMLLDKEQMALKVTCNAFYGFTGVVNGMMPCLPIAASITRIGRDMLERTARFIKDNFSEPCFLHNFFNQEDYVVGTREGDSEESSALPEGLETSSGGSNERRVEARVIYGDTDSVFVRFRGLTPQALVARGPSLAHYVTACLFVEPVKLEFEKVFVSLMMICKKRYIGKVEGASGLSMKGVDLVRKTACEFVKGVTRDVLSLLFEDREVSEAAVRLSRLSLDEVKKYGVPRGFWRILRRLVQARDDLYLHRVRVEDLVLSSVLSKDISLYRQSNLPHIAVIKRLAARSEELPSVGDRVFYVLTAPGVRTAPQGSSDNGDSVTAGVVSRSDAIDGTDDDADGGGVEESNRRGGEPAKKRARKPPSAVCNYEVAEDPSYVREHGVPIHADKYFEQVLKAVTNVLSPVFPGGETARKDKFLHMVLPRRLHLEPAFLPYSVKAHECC
Method: Human cytomegalovirus and varicella zoster virus DNA polymerases were expressed via baculovirus vector in SF21 cells and purified. Heterodimeric nucleic acid substrate used in the herpesvirus polymerase reactions was generated by annealing a 59-mer template to a 17-mer digoxigenin-labeled primer. Polymerase (HCMV final concentration of 0.2 nM; VZV final concentration of 0.4 nM) was combined with an inhibitor compound or DMSO in assay buffer (10 mM HEPES, pH 7.5, 25 mM KCl, 25 mM NaCl, 5 mM MgCl2, 5% glycerol, 0.67 mg/ml bovine serum albuminutes, and 1 mM tris(2-carboxyethyl)phosphine), and this mixture was pre-incubated for 30 minutes at room temperature in 384-well microtiter plates. The polymerization reaction was initiated by the addition of template/primer substrate (final concentration: 1.6 nM), and dNTPs (final concentration: 24 nM dCTP, 24 nMdGTP, 16 nM dATP, 16 nM dTTP, and 0.8 nM biotin-dUTP). After 60 minutes incubation at 37° C., reactions were terminated with quench buffer (25 mM HEPES pH 7.5, 100 mM NaCl, 0.25% Tween-20, 12 mM EDTA, and 1 mg/ml bovine serum albumin). Incorporation of biotinylated UTP was detected with 2.5-ug/ml anti-DIG AlphaLISA acceptor beads and 5-10 ug/ml streptavidin AlphaLISA donor beads (Perkin Elmer). Compound effects were normalized to the window defined by the controls (DMSO only and pre-quenched wells) and were fit using a 4-parameter algorithm to report an IC50.

[2] = test system: HCMV Strain AD169; assay: Viral qPCR assay, HCMV in MRC-5 cells; type: cell-based, Human cytomegalovirus; conditions: read-out: CMV MRC5 Cell (EC50)
Method: (§1) MRCS cells, Vero cells, and MeWo cells were obtained from ATCC and were maintained at 37° C./5% CO2/90% relative humidity in Minimal Essential Medium with 10% fetal bovine serum, […] L-glutamine, 100 units/ml penicillin and 100 ug/ml streptomycin. Assay plates were prepared by dispensing compounds dissolved in DMSO into wells of 384 well collagen-coated plates using an ECHO acoustic dispenser. Each compound was tested in a 10-point, serial 3-fold dilution. Controls included uninfected cells and infected cells treated only with DMSO. Assays were initiated by mixing selected cells, in suspension, with virus, and dispensing 50 μl/well infected cells to pre-plated compounds. Plates were incubated at 37° C./5% CO2/90% relative humidity for ˜72 hrs to permit genomic replication, and infected cells were lysed by the addition of an equal volume of lysis buffer (10 mM Tris-HCl, pH8, 50 mM KCl, 2 mM MgCl2, 0.45% NP-40, 0.45% Tween-20, and 100 μg/ml proteinase K). An aliquot of the lysate was transferred to a 384-well PCR plate and incubated at 56° C. for 1 hour and then at 95° C. for 10 min. Levels of a viral gene and of the cellular control, PPIA (Thermo Fisher Assay ID=Hs04194521_s1), were measured in separate 10 μL qPCR assays using TaqMan® Gene Expression Master Mix (Applied Biosystems), and an 7900HT Fast Real-Time PCR System with 384-Well Block Module. 7-point, serial 10-fold dilutions of a plasmid standard were run on each plate to generate a standard curve, and genome copies numbers were calculated by plotting experimental Ct onto linear regression of the standard curve. Viral genome copy numbers were normalized by cellular control copy number, and compound effects were normalized to the window defined by the controls. Calculated % effects were fit using a 4-parameter algorithm, and EC50 was reported.
as §1, with “gene” for “gene and of the cellular control, PPIA (Thermo Fisher Assay ID=Hs04194521_s1),”, “in” for “in separate”, “Compound effects on viral” for “Viral”, “number” for “numbers were normalized by cellular control copy number, and compound effects”
HCMV: Strain AD169 Street was assayed in MRC-5 cells and was used at 0.05-0.1 pfu/cell. The assays were performed in either growth media or in the same media with 50% fetal bovine serum. Primer-probe set was Thermo Fisher Assay ID=AIFATFK.

[3] = test system: VZV; assay: Viral qPCR assay, VZV in MRC5 cells; type: cell-based, varicella zoster virus; conditions: read-out: VZV MRC5 Cell (IC50)
Method: as §1
as §1, with “gene” for “gene and of the cellular control, PPIA (Thermo Fisher Assay ID=Hs04194521_s1),”, “in” for “in separate”, “Compound effects on viral” for “Viral”, “number” for “numbers were normalized by cellular control copy number, and compound effects”
(§2) VZV: Strain Street was maintained as an infected cell stock in MRC-5 cells. It was assayed in MeWo or MRCS cells and was used at 0.04-0.1 pfu/cell. The assays were performed in growth medium. Primer-probe set was Thermo Fisher Assay ID=AIPAEXQ. HSV-1: Strain F Street was assayed in Vero or MRCS cells and was used at 0.0005-0.004 pfu/cell in growth medium. Primer-probe set was Thermo Fisher Assay ID=AIBJZIB

[4] = test system: HSV-1 Strain F; assay: Viral qPCR assay, HSV-1 in MRC5 cells; type: cell-based, Herpes Simplex Virus type 1; conditions: read-out: HSV1 MRC5 Cell (EC50)
Method: as §1
as §1, with “gene” for “gene and of the cellular control, PPIA (Thermo Fisher Assay ID=Hs04194521_s1),”, “in” for “in separate”, “Compound effects on viral” for “Viral”, “number” for “numbers were normalized by cellular control copy number, and compound effects”
as §2

[5] = test system: HSV2; assay: Viral qPCR assay, HSV2 in MRC5 cells; type: cell-based, Herpes Simplex Virus type 2; conditions: read-out: HSV2 MRC5 Cell (EC50)
Method: as §1
as §1, with “gene” for “gene and of the cellular control, PPIA (Thermo Fisher Assay ID=Hs04194521_s1),”, “in” for “in separate”, “Compound effects on viral” for “Viral”, “number” for “numbers were normalized by cellular control copy number, and compound effects”

[6] = Human betaherpesvirus 5, AD169, MRC5, 72 h
[7] = Human alphaherpesvirus 3, MRC5, 72 h
[8] = Human alphaherpesvirus 1, MRC5, 72 h
[9] = Human alphaherpesvirus 2, MRC5, 72 h

SMILES | IC50 [1] [nM] | EC50 [2, 6] [nM] | IC50 [3, 7] [nM] | EC50 [4, 8] [nM] | EC50 [5, 9] [nM] | EC50 ([2]; MRC5 cells, ~72 hrs) [nM] | IC50 ([3]; ~72 hrs) [nM] | EC50 ([4]; ~72 hrs) [nM] | EC50 ([5]; ~72 hrs) [nM]
Cn1nc(C(=O)NCc2ccc(Cl)cc2)c2c1CN(C[C@H]1CC(F)C(=O)N1)C2 (stereo partly shown) [Compound 78] | 252 | 2880 | 2870 | 3030 | 2220 |  |  |  | 
O=C1CC[C@@H](CN2Cc3c(C(=O)NCc4ccc(Cl)cc4)nn(-c4nccs4)c3C2)N1 [Compound 42] | 25.9 | 940 | 1050 | 996 | 1100 |  |  |  | 
CC(C1CCC(=O)N1)N1Cc2c(C(=O)NCc3ccc(Cl)cc3)nn(C)c2C1 (single isomer, unassigned) [Compound 1] | 235 |  |  |  |  | 4480 | 7530 | 9980 | 6740
O=C1CC[C@@H](CN2Cc3c(C(=O)NCc4ccc(Cl)cc4)nn(C4CCOC4)c3C2)N1 (single isomer, unassigned) [Compound 44] | 33.8 |  |  |  |  | 1100 | 2370 | 2500 | 2950
O=C1CC[C@H](CN2Cc3c(C(=O)NCc4ccc(Cl)cc4)nn(C4CCOC4)c3C2)N1 (single isomer, unassigned) [Compound 34] | 51.6 |  |  |  |  | 1800 | 2050 | 790 | 1850
O=C1N[C@@H](CN2Cc3c(C(=O)NCc4ccc(Cl)cc4)nn(C(F)F)c3C2)CO1 [Compound 99] | 5.07 | 60.5 | 53.1 | 79.5 | 43.2 |  |  |  | 
O=C1CC[C@H](CN2Cc3c(C(=O)NCc4ccc(Cl)cc4)nn(-c4ncco4)c3C2)N1 [Compound 23] | 17.2 | 130 | 325 | 224 | 136 |  |  |  | 
CCC1c2c(c(C(=O)NCc3ccc(Cl)cc3)nn2C)CN1C[C@H]1CCC(=O)N1 (single isomer, unassigned) [Compound 105] | 23 |  |  |  |  | 479 | 289 | 335 | 274
Cn1nc(C(=O)NCc2ccc(Cl)cc2)c2c1CN(C[C@@H]1CC(F)C(=O)N1)C2 (stereo partly shown) [Compound 79] | 69.6 | 232 | 1170 | 1180 | 935 |  |  |  | 
Cn1nc(C(=O)NCc2ccc(Cl)cc2)c2c1CN(C[C@@H]1CCC(=O)N1)C2 [Compound 47] | 38.1 | 328 | 657 | 878 | 611 |  |  |  | 
O=C1CC[C@H](CN2Cc3c(C(=O)NCc4ccc(Cl)cc4)nn(-c4ncccn4)c3C2)N1 [Compound 28] | 15.2 |  |  |  |  | 108 | 210 | 139 | 89.5
O=C1CC[C@H](CN2Cc3c(C(=O)NCc4ccc(Cl)cc4)nn(-c4ccccn4)c3C2)N1 [Compound 13] | 25.8 | 547 | 207 | 284 | 74.6 |  |  |  | 
O=C1CC[C@H](CN2Cc3c(C(=O)NCc4ccc(Cl)cc4)nn(C4CCOC4)c3C2)N1 (single isomer, unassigned) [Compound 33] | 52.5 |  |  |  |  | 628 | 1960 | 1560 | 1410
Cn1nc(C(=O)NCc2ccc(Cl)cc2)c2c1CN(CC13CC1CC(=O)N3)C2 (stereo not shown) [Compound 95] | 127 | 632 | 4550 | 3300 | 3720 |  |  |  | 
O=C1CC[C@H](CN2Cc3c(C(=O)NCc4ccc(Cl)cc4)nn(-c4ncc5cnccn45)c3C2)N1 [Compound 8] | 18.5 |  |  |  |  | 678 | 479 | 299 | 226
CC([C@@H]1CCC(=O)N1)N1Cc2c(C(=O)NCc3ccc(Cl)cc3)nn(-c3nccs3)c2C1 (single isomer, unassigned) [Compound 5] | 5.3 |  |  |  |  | 392 | 405 | 248 | 248
O=C1CC[C@@H](CN2Cc3c(C(=O)NCc4ccc(Cl)cc4)nn(-c4ncccn4)c3C2)N1 [Compound 31] | 26.9 | 435 | 1470 | 1040 | 1410 |  |  |  | 
